In US6727264B1 (Synaptic Pharmaceutical Corporation, priority 2001, dated 2004) one finds Ki data, which are given here for 45 compounds.

As usually defined, the Ki is a dissociation constant, usually derived from enzyme kinetics or from competition with a known ligand.

The structures appear in SMILES notation. Like-named read-outs stand apart in the source and are kept apart here.

This experiment concerns the target rat MCH-1 (Rattus norvegicus, UniProt P97639). The experiment is described as follows: Radioligand binding assay at cloned rat MCH1 receptor ([3H] Compound A). Further details: host or cells: Peak rapid 293 (Peakr293) cells, transient calcium phosphate transfection, membranes. The settings on record: cloned rat MCH1 receptor, 0.08 nM [3H] Compound A, read-out: Ki (nM) rMCH1.

Chain of rat MCH-1 (P97639 whole entry): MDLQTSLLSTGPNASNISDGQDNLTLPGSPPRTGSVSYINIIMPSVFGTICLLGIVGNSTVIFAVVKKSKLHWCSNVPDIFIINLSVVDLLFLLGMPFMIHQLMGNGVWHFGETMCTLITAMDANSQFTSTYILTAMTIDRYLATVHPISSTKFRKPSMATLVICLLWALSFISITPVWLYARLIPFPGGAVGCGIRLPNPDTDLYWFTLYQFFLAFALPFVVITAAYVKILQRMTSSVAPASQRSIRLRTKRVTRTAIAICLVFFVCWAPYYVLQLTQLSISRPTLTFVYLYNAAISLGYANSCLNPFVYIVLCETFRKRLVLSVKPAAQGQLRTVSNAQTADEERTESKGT

`CC(C)C(=O)Nc1cccc(C2CCN(CCC(=O)c3ccc(Cl)cc3)CC2)c1` [Example 118]: the inhibition constant (Ki) (membranes from Peakr293 cells) was found to be 43.6 nM.
The same measure, in the same setting: under `CC(C)C(=O)Nc1cccc(C2CCN(Cc3c(OCC#N)ccc4ccccc34)CC2)c1` [Example 191] stands 649 nM; under `CCCc1nn(-c2ccc(Cl)cc2)cc1C(=O)N[C@@H](CCN1CCC(c2cccc(NC(=O)C(C)C)c2)CC1)c1ccccc1` [Example 316], 8.3 nM.
For `CC(C)C(=O)Nc1cccc(C2CCN(CCCc3c(-c4cccc([N+](=O)[O-])c4)n(C)c4ccccc34)CC2)c1` [Example 772], the Ki (Peakr293 cell membranes) was 14.9 nM.
On the same count and under the same terms, the result for `Cc1ccc2[nH]c(-c3cccc(I)c3)c(CCCN3CCC(c4cccc(NC(=O)C(C)C)c4)CC3)c2c1` [Example 742] reads 1.4 nM.
Same read-out and setting: the result for `Cc1ccc2[nH]c(-c3ccc(C(F)(F)F)cc3)c(CCCN3CCC(c4cccc(NC(=O)C(C)C)c4)CC3)c2c1` [Example 688] reads 41 nM; that for `CC(C)C(=O)Nc1cccc(C2CCN(CCCNC(=S)NC(C)(C)C)CC2)c1` [Example 620], 223 nM.
For the compound `COc1ccc(Oc2ccc(CN3CCC(c4cccc(NC(=O)C(C)C)c4)CC3)cc2)cc1` [Example 196], for the setting “membranes from Peakr293 cells”, the Ki was determined as 35.2 nM.
Same read-out and setting: the result for `CC(C)C(=O)Nc1cccc(C2CCN(Cc3c(OCc4cccc(Cl)c4)ccc4ccccc34)CC2)c1` [Example 192] reads 80.5 nM.
As for `CCC(=O)Nc1cccc(C2CCN(CCCC(=O)c3ccc(C)cc3)CC2)c1` [Example 542], the Ki (Peakr293 cell membranes) amounted to 31.3 nM.
Still for that read-out and setting: under `COc1ccc(OC(CCCCCN2CCC(c3cccc(NC(=O)C(C)C)c3)CC2)c2ccc(F)cc2)cc1` (stereo not drawn) [Example 907] stands 3.1 nM; under `CC(C)C(=O)Nc1cccc(C2CCN(CCCc3c(-c4ccccc4F)[nH]c4ccc(OC(F)(F)F)cc34)CC2)c1` [Example 695], 2.1 nM; under `CC(C)C(=O)Nc1cccc(C2CCN(CCCc3c(-c4ccccc4Cl)n(C)c4ccccc34)CC2)c1` [Example 735], 1.1 nM.
`CC(=O)c1cccc(OC(CCN2CCC(c3cccc(NC(=O)C(C)C)c3)CC2)c2ccc(Br)cc2)c1` (stereo not drawn) [Example 154]: under “membranes from Peakr293 cells”, the Ki worked out at 9.3 nM.
The same measure, in the same setting: the result for `CC(C)C(=O)Nc1cccc(C2CCN(CCCCOC(=O)Cc3ccc(F)cc3)CC2)c1` [Example 299] reads 37.5 nM.
Regarding `CC(C)C(=O)Nc1cccc(C2CCN(CCCCC(=O)c3cccc(Cl)c3)CC2)c1` [Example 666], the Ki (Peakr293 cell membranes) is 21.9 nM.
Still for that read-out and setting: under `CCC(=O)Nc1cccc(C2CCN(CCCC(=O)c3ccc(Oc4ccccc4)cc3)CC2)c1` [Example 536] stands 150 nM; under `CC(C)C(=O)Nc1cccc(C2CCN(CCCc3c(-c4ccc(C(F)(F)F)cc4)[nH]c4ccc(OC(F)(F)F)cc34)CC2)c1` [Example 683], 54.2 nM.
On to `CC(C)C(=O)Nc1cccc(C2CCN(CCC(Oc3cc(F)ccc3F)c3ccc(F)cc3)CC2)c1` (stereo not drawn) [Example 142], for which the Ki (membranes from Peakr293 cells) came to 18.3 nM.
As to `CC(=O)Nc1cccc(C2CCN(CCCNC(=O)C3=C(C)NC(=O)CC3c3ccc(F)c(F)c3)CC2)c1` (stereo not drawn) [Example 623], where the note is “Peakr293 cell membranes”, the Ki is 23.1 nM.
On the same count and under the same terms, under `CC(C)C(=O)Nc1cccc(C2CCN(CCCCCC(Oc3cc(C(F)(F)F)ccc3F)c3cccc(F)c3)CC2)c1` (stereo not drawn) [Example 915] stands 22.6 nM; under `CC(C)C(=O)Nc1cccc(C2CCN(CCCCCC(Oc3cc(C(F)(F)F)ccc3F)c3ccccc3F)CC2)c1` (stereo not drawn) [Example 913], 12.9 nM; under `CC(=O)c1ccccc1OC(CCCCN1CCC(c2cccc(NC(=O)C(C)C)c2)CC1)c1ccccc1` (stereo not drawn) [Example 938], 609 nM.
Same read-out and setting: the result for `CC(C)C(=O)Nc1cccc(C2CCN(CCCCCCC(Oc3cc(C(F)(F)F)ccc3F)c3ccccc3F)CC2)c1` (stereo not drawn) [Example 917] reads 78 nM.
As for `CC(C)C(=O)Nc1cccc(C2CCN(CCC(Oc3ccc(-c4ccccc4)cc3)c3ccc(Br)cc3)CC2)c1` (stereo not drawn) [Example 145], the Ki (membranes from Peakr293 cells) was 197 nM.
Same read-out and setting: under `CC(C)C(=O)Nc1cccc(C2CCN(CCC(Oc3ccc(Br)cc3)c3ccc4c(c3)CCC4)CC2)c1` (stereo not drawn) [Example 165, N-(3-{1-[3-(4- BROMOPHENOXY)-3-(2,3-DIHYDRO-1H-INDEN-5-YL)PROPYL]-4-PIPERIDINYL}PHENYL)-2-METHYLPROPANAMIDE] stands 6.2 nM.
For `CCC(=O)Nc1cccc(C2CCN(CCCCC(=O)c3cccc([N+](=O)[O-])c3)CC2)c1` [Example 552], the Ki (Peakr293 cell membranes) was 24.7 nM.
For `Cc1nn(C)c2ncc(C(=O)N[C@@H](CCN3CCC(c4cccc(NC(=O)C(C)C)c4)CC3)c3ccccc3)c(Cl)c12` [Example 317], the Ki (membranes from Peakr293 cells) turned out to be 110 nM.
In the case of `CC(C)C(=O)Nc1cccc(C2CCN(CC[C@H](NC(=O)c3ccc(F)cc3F)c3ccccc3)CC2)c1` [Example 312], for the setting “membranes from Peakr293 cells”, the Ki came out at 61.5 nM.
As to `CCC(=O)Nc1cccc(C2CCN(Cc3cn(-c4ccccc4)c4ccccc34)CC2)c1` [Example 464], the Ki (Peakr293 cell membranes) came out at 84.1 nM.
On the same count and under the same terms, under `CC(C)C(=O)Nc1cccc(C2CCN(CCCNC(=O)N3C(=O)OC[C@@H]3c3ccc(F)c(F)c3)CC2)c1` [Example 576] stands 74.3 nM.
As for `Cc1onc(-c2c(F)cccc2Cl)c1C(=O)OCCCN1CCC(c2cccc(NC(=O)C(C)C)c2)CC1` [Example 287, 3-{4-[3-(ISOBUTYRYLAMINO)PHENYL]-1-PIPERIDINYL}PROPYL 3-(2-CHLORO-6-FLUOROPHENYL)-5-METHYL-4-ISOXAZOLECARBOXYLATE], the Ki (membranes from Peakr293 cells) worked out at 34.3 nM.
Turning to `CC(C)C(=O)Nc1cccc(C2CCN(CCCc3c(-c4ccc(I)cc4)[nH]c4ccc(OC(F)(F)F)cc34)CC2)c1` [Example 744], the Ki (Peakr293 cell membranes) came to 47.1 nM.
Take `COC(=O)c1ccc2c(CN3CCC(c4cccc(NC(=O)C(C)C)c4)CC3)c[nH]c2c1` [Example 498, METHYL 3-({4-[3-(ISOBUTYRYLAMINO)PHENYL]-1-PIPERIDINYL}METHYL)-1H-INDOLE-6-CARBOXYLATE]: the Ki (Peakr293 cell membranes) is 52.2 nM.
For `CC(C)C(=O)Nc1cccc(C2CCN(CC[C@H](NC(=O)c3cccnc3Oc3ccccc3)c3ccccc3)CC2)c1` [Example 315], the Ki (membranes from Peakr293 cells) was found to be 11.4 nM.
In the case of `CC(=O)c1cccc(OC(CCCCCN2CCC(c3cccc(NC(=O)C(C)C)c3)CC2)c2ccc(Cl)cc2)c1` (stereo not drawn) [Example 912], where the note is “Peakr293 cell membranes”, the Ki came to 5.7 nM.
For `Cc1ccc(C(=O)CCCN2CCC(c3cccc(NC(=O)C(C)C)n3)CC2)cc1C` [Example 264], the Ki (membranes from Peakr293 cells) came out at 54.7 nM.
Take `CC(C)C(=O)Nc1cccc(C2CCN(CCCc3c(-c4ccccc4F)[nH]c4c3ccc3ccccc34)CC2)c1` [Example 697]: under “Peakr293 cell membranes”, the Ki turned out to be 3 nM.
Take `Cc1ccc2c(CN3CCC(c4cccc(NC(=O)C(C)C)c4)CC3)c[nH]c2c1` [Example 495]: the Ki (Peakr293 cell membranes) was found to be 95.1 nM.
For the compound `CC(C)C(=O)Nc1cccc(C2CCN(CCC(O)c3ccc(Cl)cc3)CC2)c1` (stereo not drawn) [Example 124], the Ki (membranes from Peakr293 cells) came to 33 nM.
The same measure, in the same setting: the result for `CC(C)C(=O)Nc1cccc(C2CCN(CCCCCC(O)c3ccccc3)CC2)c1` (stereo not drawn) [Example 281] reads 7.9 nM.
Turning to `O=C(Nc1cccc(C2CCN(Cc3c[nH]c4cc(F)ccc34)CC2)c1)C1CC1` [Example 469], the Ki (Peakr293 cell membranes) came to 479 nM.
`CC(C)C(=O)Nc1cccc(C2CCN(CCCCCC(Oc3ccc(Br)cc3)c3ccc(F)cc3)CC2)c1` (stereo not drawn) [Example 900]: the Ki (Peakr293 cell membranes) is 11.2 nM.
For `COc1ccc2[nH]c(-c3ccccc3)c(CCCCN3CCC(c4cccc(NC(=O)C(C)C)c4)CC3)c2c1` [Example 92], the Ki (membranes from Peakr293 cells) turned out to be 8 nM.
Regarding `Cc1[nH]c2ccc(Cl)cc2c1CN1CCC(c2cccc(NC(=O)C(C)C)c2)CC1` [Example 435], where the note is “Peakr293 cell membranes”, the Ki came out at 215 nM.
